4 compounds from ChEMBL document CHEMBL5512655, “Discovery of indolylacryloyl-derived oxacins as novel potential broad-spectrum antibacterial candidates” (Eur J Med Chem, 2024) can be followed below.

Molecules are shown by their SMILES. Values after ≈ are worked out from the molar mass of the structure shown.

Format in all cases: functional
The test system of one assay is Klebsiella pneumoniae. The assay is described as follows: Antibacterial activity against Klebsiella pneumonia assessed as inhibition of bacterial growth measured after 24 hrs incubation.
Assay [1] has as its system Escherichia coli. The assay is described as follows: Antibacterial activity against Escherichia coli ATCC 25922 assessed as inhibition of bacterial growth measured after 24 hrs incubation.
Assay [2] has as its system Escherichia coli. The assay can be described thus: Antibacterial activity against Escherichia coli assessed as inhibition of bacterial growth measured after 24 hrs incubation.
Assay [3] has as its system Staphylococcus aureus. The assay is described as follows: Antibacterial activity against Staphylococcus aureus ATCC 25923 assessed as inhibition of bacterial growth measured after 24 hrs incubation.
Another assay has as its system Acinetobacter baumannii. The assay is described as follows: Antibacterial activity against Acinetobacter baumannii assessed as inhibition of bacterial growth measured after 24 hrs incubation.
In assay [4] the test system is Staphylococcus aureus. The assay is described as follows: Antibacterial activity against Staphylococcus aureus assessed as inhibition of bacterial growth measured after 24 hrs incubation.
Another assay relates to Enterococcus faecalis. The assay is described as follows: Antibacterial activity against Enterococcus faecalis assessed as inhibition of bacterial growth measured after 24 hrs incubation.
Assay [5] relates to Pseudomonas aeruginosa. The assay can be described thus: Antibacterial activity against Pseudomonas aeruginosa assessed as inhibition of bacterial growth measured after 24 hrs incubation.
In assay [6] the test system is Staphylococcus aureus. The assay can be described thus: Antibacterial activity against Staphylococcus aureus ATCC 29213 assessed as inhibition of bacterial growth measured after 24 hrs incubation.
In assay [7] the test system is Pseudomonas aeruginosa. The assay can be described thus: Antibacterial activity against Pseudomonas aeruginosa ATCC 27853 assessed as inhibition of bacterial growth measured after 24 hrs incubation.
In assay [8] the test system is Staphylococcus aureus. The assay is described as follows: Antibacterial activity against methicillin-resistant Staphylococcus aureus N315 assessed as inhibition of bacterial growth measured after 24 hrs incubation.

`CCn1cc(C(=O)O)c(=O)c2cc(F)c(N3CCN(C(=O)/C(C#N)=C/c4cn(Cc5ccccc5)c5ccccc45)CC3)cc21`: the MIC in the assay with Klebsiella pneumoniae was 0.5 µg/mL (≈ 0.828 µM); in the assay with Escherichia coli [1] it was 2 µg/mL (≈ 3.31 µM); with Escherichia coli [2], 1 µg/mL (≈ 1.66 µM); in the assay on Staphylococcus aureus [3] it was 4 µg/mL (≈ 6.63 µM); in the assay on Acinetobacter baumannii it was 2 µg/mL (≈ 3.31 µM); in the assay with Staphylococcus aureus [4], 4 µg/mL (≈ 6.63 µM). For the same compound, the MIC in the assay with Enterococcus faecalis stood at 4 µg/mL (≈ 6.63 µM); with Pseudomonas aeruginosa [5], 256 µg/mL (≈ 424 µM); in the assay with Staphylococcus aureus [6], 4 µg/mL (≈ 6.63 µM); in the assay on Pseudomonas aeruginosa [7], 1 µg/mL (≈ 1.66 µM); with Staphylococcus aureus [8], 4 µg/mL (≈ 6.63 µM).

Turning to `CCn1cc(C(=O)O)c(=O)c2cc(F)c(N3CCN(C(=O)/C(C#N)=C/c4c[nH]c5cccc(Cl)c45)CC3)cc21`, the MIC in the assay on Klebsiella pneumoniae stood at 0.5 µg/mL (≈ 0.912 µM); in the assay with Escherichia coli [1] it was 2 µg/mL (≈ 3.65 µM); in the assay on Escherichia coli [2] it was 4 µg/mL (≈ 7.3 µM); in the assay on Staphylococcus aureus [3] it was 4 µg/mL (≈ 7.3 µM); in the assay on Acinetobacter baumannii it was 2 µg/mL (≈ 3.65 µM); in the assay on Staphylococcus aureus [4] it was 1 µg/mL (≈ 1.82 µM). Also, the MIC in the assay with Enterococcus faecalis was found to be 8 µg/mL (≈ 14.6 µM); in the assay on Pseudomonas aeruginosa [5] it was 32 µg/mL (≈ 58.4 µM); in the assay on Staphylococcus aureus [6], 2 µg/mL (≈ 3.65 µM); in the assay with Pseudomonas aeruginosa [7], 1 µg/mL (≈ 1.82 µM); in the assay on Staphylococcus aureus [8], 8 µg/mL (≈ 14.6 µM).

Consider `CCn1cc(C(=O)O)c(=O)c2cc(F)c(N3CCN(C(=O)/C(C#N)=C/c4c[nH]c5c(C)cccc45)CC3)cc21`, for which the MIC was 0.5 µg/mL (≈ 0.948 µM) with Klebsiella pneumoniae; 2 µg/mL (≈ 3.79 µM) with Escherichia coli [1]; 1 µg/mL (≈ 1.9 µM) in the assay on Escherichia coli [2]; 4 µg/mL (≈ 7.58 µM) in the assay on Staphylococcus aureus [3]; 2 µg/mL (≈ 3.79 µM) in the assay with Acinetobacter baumannii; 4 µg/mL (≈ 7.58 µM) in the assay on Staphylococcus aureus [4]. Moreover, the MIC with Enterococcus faecalis stood at 4 µg/mL (≈ 7.58 µM); in the assay with Pseudomonas aeruginosa [5], 4 µg/mL (≈ 7.58 µM); in the assay on Staphylococcus aureus [6] it was 4 µg/mL (≈ 7.58 µM); in the assay on Pseudomonas aeruginosa [7], 1 µg/mL (≈ 1.9 µM); in the assay on Staphylococcus aureus [8], 4 µg/mL (≈ 7.58 µM).

Regarding `CCn1cc(C(=O)O)c(=O)c2cc(F)c(N3CCN(C(=O)/C(C#N)=C/c4cn(Cc5ccccc5F)c5ccccc45)CC3)cc21`, the MIC in the assay with Klebsiella pneumoniae is 1 µg/mL (≈ 1.61 µM); in the assay with Escherichia coli [1], 0.25 µg/mL (≈ 0.402 µM); with Escherichia coli [2], 0.5 µg/mL (≈ 0.804 µM); in the assay on Staphylococcus aureus [3], 16 µg/mL (≈ 25.7 µM); in the assay with Acinetobacter baumannii, 0.5 µg/mL (≈ 0.804 µM); in the assay with Staphylococcus aureus [4] it was 32 µg/mL (≈ 51.5 µM). Moreover, the MIC in the assay with Enterococcus faecalis came out at 16 µg/mL (≈ 25.7 µM); in the assay with Pseudomonas aeruginosa [5] it was 1 µg/mL (≈ 1.61 µM); in the assay with Staphylococcus aureus [6], 32 µg/mL (≈ 51.5 µM); with Pseudomonas aeruginosa [7], 0.5 µg/mL (≈ 0.804 µM); in the assay with Staphylococcus aureus [8] it was 0.25 µg/mL (≈ 0.402 µM).

In general, MIC refers to the smallest concentration in the dilution series that meets the test's criterion for growth inhibition.
